Consider 35 molecules from US11760722B2 (priority 2022, dated 2023).

Several values for one entry are separate records, joined by “and”; a condition that tells them apart may be missing. Equal values may be shown once. Read-outs that look alike come from different tables or passages of the source.

In assay [1] the target is T1, COVID-19 WT Mpro (Severe acute respiratory syndrome coronavirus 2, UniProt P0DTD1).
T1 construct: The C-His6-tagged COVID-19 WT Mpro (NC_045512); His6 (C); host or cells: E. coli
The assay can be described thus: biochemical. The following applies: WT Mpro 25 nM, substrate 25 μM, 30 min pre-incubation; several values in a cell = repeat determinations.

The test system of assay [2] is SARS-CoV-2 replicon. As to the kind of experiment: microbe, parasite or virus in culture. It counts as cell-based. The following applies: read-out: Replicon EC50. For orientation: A replicon is a self-replicating genome or part of one, used to study replication in cells.
Assay [3] deals with human coronavirus (HCoV) 229E. As to the kind of experiment: microbe, parasite or virus in culture. Format: cell-based, human coronavirus 229E. The following applies: unidentified human coronavirus, 72 h, MRCS cells, HCoV 229E, 3 days, CellTiter Glo; read-out: 229E CPE EC50. A general note: ATP-based viability assays read luminescence as a measure of living cells.
Where [4] appears, read: Severe acute respiratory syndrome coronavirus 2, Huh-7, 24 h.

Broadly, the IC50 is the midpoint of a concentration-inhibition curve. Low readings indicate greater potency in that assay, high ones weaker potency in that assay. What is called EC50 is the concentration needed to bring the measured effect to its halfway point. In turn, `CC1(C)[C@@H]2[C@@H](C(=O)N[C@H](C#N)C[C@@H]3CCNC3=O)N(C(=O)[C@@H]3CCCN3C(=O)C(F)(F)F)C[C@@H]21` [Compound 5] returned an IC50 in assay [1] of over 30000 nM. Moreover, the concentration for a half-maximal effect (EC50) in assay [2] (setting [4]) was over 30000 nM.
In assay [1], `CC1(C)[C@@H]2[C@@H](C(=O)N[C@H](C#N)C[C@@H]3CCNC3=O)N(C(=O)[C@@H]3CCN3C(=O)C(F)(F)F)C[C@@H]21` [Compound 6] registered an IC50 of 17300 nM. The EC50 in assay [2] (setting [4]) was over 30000 nM.
In the same order, the values of `COC(=O)N(C(=O)C(F)(F)F)[C@H](C(=O)N1C[C@H]2[C@@H]([C@H]1C(=O)N[C@H](C#N)C[C@@H]1CCNC1=O)C2(C)C)C(C)(C)C` [Compound 8] are over 30000 nM and 3110 nM.
The matching figures for `CC1(C)[C@@H]2[C@@H](C(=O)N[C@@H](C[C@@H]3CCNC3=O)C(=O)c3nc4ccccc4s3)N(C(=O)[C@@H]3CCCN3C(=O)C(F)(F)F)C[C@@H]21` [Compound 10]: over 30000 nM and 22700 nM.
On to `CC1(C)[C@@H]2[C@@H](C(=O)N[C@@H](C[C@@H]3CCNC3=O)C(=O)c3nc4ccccc4s3)N(C(=O)[C@@H]3CCN3C(=O)C(F)(F)F)C[C@@H]21` [Compound 11], for which, in assay [1], the IC50 is 11000 nM. The concentration for a half-maximal effect (EC50) in assay [2] (setting [4]) was 25500 nM.
Consider `CC(C)(C)[C@H](NC(=O)[C@@H](NC(=O)c1cnccn1)C1CCCCC1)C(=O)N1C[C@H]2[C@@H]([C@H]1C(=O)N[C@H](C#N)C[C@@H]1CCNC1=O)C2(C)C` [Compound 13], for which the IC50 in assay [1] was 66 nM and 256 nM. In addition, the figures for the EC50 in assay [3], in assay [2] (setting [4]) and in assay [2] were 9820 nM, 1630 nM and 1920 nM, respectively.
In turn, `CC(C)(C)[C@H](NC(=O)[C@H](NC(=O)c1cnccn1)C1CCCCC1)C(=O)N1C[C@H]2[C@@H]([C@H]1C(=O)N[C@H](C#N)C[C@@H]1CCNC1=O)C2(C)C` [Compound 14] had an IC50 in assay [1] of over 30000 nM. Besides, the EC50 in assay [2] (setting [4]) was over 30000 nM.
As for `CC(C)(C)[C@H](NC(=O)C(F)(F)F)C(=O)N1C[C@H]2[C@@H]([C@H]1C(=O)N[C@H](C#N)Cc1cncnc1)C2(C)C` [Compound 15], the IC50 in assay [1] was over 30000 nM. Further, the EC50 in assay [2] (setting [4]) is over 30000 nM.
In turn, `CC(C)(C)OC(=O)N1C2CCC1CC(C(=O)N[C@H](C(=O)N1C[C@H]3[C@@H]([C@H]1C(=O)N[C@H](C#N)C[C@@H]1CCNC1=O)C3(C)C)C(C)(C)C)C2` (stereo partly shown) [Compound 17] had an IC50 in assay [1] of 704 nM. The figures for the EC50 in assay [3] and in assay [2] (setting [4]) were 7960 nM and 2640 nM, respectively.
`CC(C)(C)[C@H](NC(=O)C1CC2CCC(C1)O2)C(=O)N1C[C@H]2[C@@H]([C@H]1C(=O)N[C@H](C#N)C[C@@H]1CCNC1=O)C2(C)C` (stereo partly shown) [Compound 19] displayed a concentration for half-maximal inhibition (IC50) in assay [1] of 3710 nM. Moreover, the concentration giving a half-maximal response (EC50) in assay [3] and in assay [2] (setting [4]) was over 30000 nM each time.
Turning to `CC(C)(C)[C@H](NC(=O)C1COC1)C(=O)N1C[C@H]2[C@@H]([C@H]1C(=O)N[C@H](C#N)C[C@@H]1CCNC1=O)C2(C)C` [Compound 21], in assay [1], the concentration for half-maximal inhibition (IC50) worked out at 161 nM. Besides, the EC50 in assay [3] and in assay [2] (setting [4]) was over 30000 nM in each case.
In assay [1], `CC(C)(C)[C@H](NC(=O)c1ccc2[nH]ncc2c1)C(=O)N1C[C@H]2[C@@H]([C@H]1C(=O)N[C@H](C#N)C[C@@H]1CCNC1=O)C2(C)C` [Compound 24] displayed an IC50 of 143 nM. Moreover, the EC50 was determined as 23400 nM in assay [3] and 3610 nM in assay [2] (setting [4]).
In the same order, the values of `COC(C)(C)C(=O)N[C@H](C(=O)N1C[C@H]2[C@@H]([C@H]1C(=O)N[C@H](C#N)C[C@@H]1CCNC1=O)C2(C)C)C(C)(C)C` [Compound 25] are 161 nM, 2470 nM and 2340 nM.
For the molecule `CC(C)(C)[C@H](NC(=O)c1cc2ccccc2s1)C(=O)N1C[C@H]2[C@@H]([C@H]1C(=O)N[C@H](C#N)C[C@@H]1CCNC1=O)C2(C)C` [Compound 26], the half-maximal inhibitory concentration (IC50) in assay [1] amounted to 410 nM. Moreover, the half-maximal effective concentration (EC50) in assay [3] came to 5860 nM; in assay [2] (setting [4]) it was 2560 nM.
With `CC(C)(C)[C@H](NC(=O)c1cc2ccccc2[nH]1)C(=O)N1C[C@H]2[C@@H]([C@H]1C(=O)N[C@H](C#N)C[C@@H]1CCNC1=O)C2(C)C` [Compound 28], the 50% inhibitory concentration (IC50) in assay [1] is 728 nM. In addition, the results for the EC50 in assay [3] and in assay [2] (setting [4]) were 6120 nM and 2050 nM, respectively.
In assay [1], `CC(C)(C)[C@H](NC(=O)c1ccc2cc[nH]c2c1)C(=O)N1C[C@H]2[C@@H]([C@H]1C(=O)N[C@H](C#N)C[C@@H]1CCNC1=O)C2(C)C` [Compound 42] gave an IC50 of 121 nM. For the same molecule, the EC50 in assay [2] (setting [4]) turned out to be 2480 nM.
The matching figures for `CC(C)(C)[C@H](NC(=S)NC1CCCCC1)C(=O)N1C[C@H]2[C@@H]([C@H]1C(=O)N[C@H](C#N)C[C@@H]1CCNC1=O)C2(C)C` [Compound 43]: 1230 nM and 3210 nM.
In the same order, the values of `CC(C)(C)[C@H](NC(=O)C1Cc2ccccc2N1)C(=O)N1C[C@H]2[C@@H]([C@H]1C(=O)N[C@H](C#N)C[C@@H]1CCNC1=O)C2(C)C` (stereo partly shown) [Compound 45] are 385 nM and 960 nM.
The matching figures for `CC(C)(C)[C@H](NC(=O)[C@H]1C[C@H]2CCCC[C@H]2N1)C(=O)N1C[C@H]2[C@@H]([C@H]1C(=O)N[C@H](C#N)C[C@@H]1CCNC1=O)C2(C)C` [Compound 46]: 7500 nM and over 30000 nM.
In the case of `CC(C)(C)[C@H](NC(=O)N1CCOCC1)C(=O)N1C[C@H]2[C@@H]([C@H]1C(=O)N[C@H](C#N)C[C@@H]1CCNC1=O)C2(C)C` [Compound 48], in assay [1], the concentration for half-maximal inhibition (IC50) was found to be 224 nM. Further, the EC50 in assay [2] (setting [4]) stood at 22000 nM.
In assay [1], `CC1(C)[C@@H]2[C@@H](C(=O)N[C@H](C#N)C[C@@H]3CCNC3=O)N(C(=O)[C@@H](NC(=O)C(F)(F)F)C34CC(C3)C4)C[C@@H]21` [Compound 50] showed an IC50 of 60 nM. Besides, in assay [2] (setting [4]), the EC50 stood at 270 nM.
In the same order, the values of `CC(C)(C)[C@H](NC(=O)c1cc2ccccn2n1)C(=O)N1C[C@H]2[C@@H]([C@H]1C(=O)N[C@H](C#N)C[C@@H]1CCNC1=O)C2(C)C` [Compound 51] are 9400 nM and 9540 nM.
In the same order, the values of `CC(C)(C)[C@H](NC(=O)N1CCCCC1)C(=O)N1C[C@H]2[C@@H]([C@H]1C(=O)N[C@H](C#N)C[C@@H]1CCNC1=O)C2(C)C` [Compound 55] are 1050 nM and 6040 nM.
In assay [1], `CC(C)(C)OC(=O)N1CCCC1(C)C(=O)N[C@H](C(=O)N1C[C@H]2[C@@H]([C@H]1C(=O)N[C@H](C#N)C[C@@H]1CCNC1=O)C2(C)C)C(C)(C)C` (stereo partly shown) [Compound 57] displayed an IC50 of 57 nM. The EC50 in assay [2] (setting [4]) came to 400 nM.
For the molecule `CC(C)(C)[C@H](NC(=O)C#Cc1ccc(C(F)(F)F)cc1)C(=O)N1C[C@H]2[C@@H]([C@H]1C(=O)N[C@H](C#N)C[C@@H]1CCNC1=O)C2(C)C` [Compound 154], the EC50 worked out at 511 nM in assay [3] and 180 nM in assay [2] (setting [4]).
In the same order, the values of `COc1cc(/C=C/C(=O)N[C@H](C(=O)N2C[C@H]3[C@@H]([C@H]2C(=O)N[C@H](C#N)C[C@@H]2CCNC2=O)C3(C)C)C(C)(C)C)cc(OC)c1` [Compound 157] are 6940 nM and 320 nM.
The matching figures for `CC(C)(C)[C@H](NC(=O)C=C(C(F)(F)F)C(F)(F)F)C(=O)N1C[C@H]2[C@@H]([C@H]1C(=O)N[C@H](C#N)C[C@@H]1CCNC1=O)C2(C)C` [Compound 158]: over 30000 nM and over 10000 nM.
The matching figures for `CC(C)(C)[C@H](NC(=O)C(F)C(F)(F)F)C(=O)N1C[C@H]2[C@@H]([C@H]1C(=O)N[C@H](C#N)C[C@@H]1CCNC1=O)C2(C)C` (stereo partly shown) [Compound 159]: 134 nM and 30 nM.
In the case of `CC(C)=C(Cl)C(=O)N[C@H](C(=O)N1C[C@H]2[C@@H]([C@H]1C(=O)N[C@H](C#N)C[C@@H]1CCNC1=O)C2(C)C)C(C)(C)C` [Compound 160], the results for the EC50 in assay [3] and in assay [2] (setting [4]) were 193 nM and 160 nM, respectively.
In the same order, the values of `CC(C)(C)[C@H](NC(=O)CC(F)(F)F)C(=O)N1C[C@H]2[C@@H]([C@H]1C(=O)N[C@H](C#N)C[C@@H]1CCNC1=O)C2(C)C` [Compound 161] are 585 nM and 180 nM.
In the same order, the values of `CC(C)(C)[C@H](NC(=O)/C(F)=C(\F)C(F)(C(F)(F)F)C(F)(F)F)C(=O)N1C[C@H]2[C@@H]([C@H]1C(=O)N[C@H](C#N)C[C@@H]1CCNC1=O)C2(C)C` [Compound 163] are 4630 nM and over 10000 nM.
The matching figures for `Cc1ccc(S(=O)(=O)N(C(=O)C(F)(F)F)[C@H](C(=O)N2C[C@H]3[C@@H]([C@H]2C(=O)N[C@H](C#N)C[C@@H]2CCNC2=O)C3(C)C)C(C)(C)C)cc1` [Compound 167]: 120 nM and 20 nM.
Regarding `Cc1cc(S(=O)(=O)N[C@H](C(=O)N2C[C@H]3[C@@H]([C@H]2C(=O)N[C@H](C#N)C[C@@H]2CCNC2=O)C3(C)C)C(C)(C)C)sc1Cl` [Compound 168], the EC50 in assay [3] was found to be 116 nM; in assay [2] (setting [4]), 41 nM.
In the same order, the values of `Cc1cc(S(=O)(=O)N[C@H](C(=O)N2C[C@H]3[C@@H]([C@H]2C(=O)N[C@H](C#N)C[C@@H]2CCNC2=O)C3(C)C)C(C)(C)C)sc1C` [Compound 169] are 163 nM and 37 nM.
In the same order, the values of `CCc1ccc(S(=O)(=O)N[C@H](C(=O)N2C[C@H]3[C@@H]([C@H]2C(=O)N[C@H](C#N)C[C@@H]2CCNC2=O)C3(C)C)C(C)(C)C)s1` [Compound 170] are 140 nM and 38 nM.
